Laboratory results as given in US20150045301A1, “METHODS AND USES OF ANP (ATRIAL NATRIURETIC PEPTIDE), BNP (BRAIN NATRIURETIC PEPTIDE) AND CNP (C-TYPE NATRIURETIC PEPTIDE)-RELATED PEPTIDES AND DERIVATIVES THEREOF FOR TREATMENT OF RETINAL DISORDERS AND DISEASES” (KALOS Therapeutics, Inc., priority 2011, published 2015).
Several values for one entry are separate records, joined by “and”; a condition that tells them apart may be missing. Identical values can stand only once. Entries after “also recorded” stand apart in the source; their conditions may differ.

How the values were obtained:
[1] = test system: Human Pancreatic Adenocarcinoma Cells (HPAC); experiment: HPAC cell viability / anti-cell proliferative assay (Calbiochem Rapid Cell Proliferation Kit, OD 450 nm); format: cell-based; conditions: 48 hours; for Optical Densities in 96_Well Plate, Average: average of 5 wells; for Optical Densities in 96_Well Plate, single well: one of 5 replicate wells
Experimental: Human Pancreatic Adenocarcinoma Cells (HPAC) cells were obtained from ATCC and propagated in Dulbecco's modified Eagle's medium and Ham's F12 medium (DME-F12) (1:1) containing 2.5 mM glutamine, […], 5 ug/mL transferrin, 1 ng/mL EGF (epidermal growth factor), plus 5% FBS (fetal bovine serum). Cell cultures were incubated at 37° C., 5% CO2 in a 100% humidity atmosphere. The cells were routinely brought to confluence in T-flasks, rinsed with phosphate buffered saline(PBS), and treated with trypsin for 5 min at room temp. The trypsinized cells were rinsed from the plate with 10 mL medium and counted. Viability at subculturing was generally ≧95%.
Approximately 10,000 cells in 100 uL of medium were placed in each well of a 96-well plate and incubated over night. Peptides having the following sequences were used: Arg-15-Cys (RSSCAGAALSPLGAC); Pro-15-Val (PNEEAGAALSPLPEV); Ala-8-Leu (AGALSPL); C-ANP 4-23 ([…]) and, VDL ([…]). The peptides were dissolved in PBS and sterile filtered. The peptides were diluted into the cell culture medium to the following final concentrations: 1, 0.3, 0.1, 0.03, and 0.01 uM. Each peptide was tested in 5 replicate wells. The cultures were incubated for an additional 48 hours at 37° C.
The viability of the cells was determined using a Calbiochem Rapid Cell Proliferation Kit (catalog number QIA127). Ten uL of Calbiochem color reagent was added to each well and incubated for an additional 1.5 hours at 37° C. Optical densities were read at 450 nm using a Molecular Devices ThermoMax microplate reader. The plate template is shown in Table I (unlabeled wells contained cells but no peptide and were used as blanks). Results are presented in Table I, and are graphically illustrated in FIGS. 1 and 2.

[2] = test system: cancer cells; experiment: Anti-cancer activity of peptides with the conserved motif (cell proliferative assay); format: cell-based; conditions: statement in the description
Description: This example describes activity of peptides having a conserved motif and conserved amino acids predicted to be functional in the motif. (Table III). This example also describes additional exemplary peptide sequences having a conserved motif predicted to have activity (Table IV). Notations “Res 1, Res 2” etc., herein refer by single letter abbreviation the amino acid in the exemplary peptide 8-mer. “Activity” can be determined by a cell proliferative assay, such as an assay described herein or known to one of skill in the art. Of course, peptides exemplified in Table IV can include the conserved motif peptide as part of a larger protein. The SEQ ID NO is the same as the peptide number. Each of these exemplary peptides can be analyzed in vitro, ex vivo, and in vivo for anti-cell proliferative activity using an assay, such as a cell based in vitro assay described in Examples 1 or 4.

[3] = test system: Human RPE cells (ARPE-19); experiment: Transepithelial electrical resistance (TEER) of RPE cell layer treated with VEGF; format: cell-based; conditions: ARPE-19 cell layer
[4] = target: T1, NPRC (Homo sapiens, UniProt P17342); conditions: comparison between natriuretic peptides, Vesely 2008; cited from earlier work
T1 sequence (P17342 27-541): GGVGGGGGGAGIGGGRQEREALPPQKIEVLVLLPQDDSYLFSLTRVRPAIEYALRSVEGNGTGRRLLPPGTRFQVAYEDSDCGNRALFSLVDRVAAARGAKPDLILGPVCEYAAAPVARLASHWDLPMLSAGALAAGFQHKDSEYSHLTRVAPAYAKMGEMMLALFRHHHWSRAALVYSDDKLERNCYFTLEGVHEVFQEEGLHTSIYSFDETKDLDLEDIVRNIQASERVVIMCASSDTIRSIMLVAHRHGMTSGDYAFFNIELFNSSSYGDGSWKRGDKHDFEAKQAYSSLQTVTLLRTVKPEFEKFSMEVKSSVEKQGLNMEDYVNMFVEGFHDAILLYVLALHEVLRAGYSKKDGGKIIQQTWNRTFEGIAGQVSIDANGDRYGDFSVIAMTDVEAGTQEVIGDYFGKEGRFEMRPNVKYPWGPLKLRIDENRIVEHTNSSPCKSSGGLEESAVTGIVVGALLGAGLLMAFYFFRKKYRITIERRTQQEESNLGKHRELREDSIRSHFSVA

[5] = test system: cancer cells; conditions: comparison between natriuretic peptides, Vesely 2008; cited from earlier work
[6] = target: T2, NPRA (Homo sapiens, UniProt P16066); conditions: comparison between natriuretic peptides, Vesely 2008; cited from earlier work
T2 sequence (P16066 33-1061): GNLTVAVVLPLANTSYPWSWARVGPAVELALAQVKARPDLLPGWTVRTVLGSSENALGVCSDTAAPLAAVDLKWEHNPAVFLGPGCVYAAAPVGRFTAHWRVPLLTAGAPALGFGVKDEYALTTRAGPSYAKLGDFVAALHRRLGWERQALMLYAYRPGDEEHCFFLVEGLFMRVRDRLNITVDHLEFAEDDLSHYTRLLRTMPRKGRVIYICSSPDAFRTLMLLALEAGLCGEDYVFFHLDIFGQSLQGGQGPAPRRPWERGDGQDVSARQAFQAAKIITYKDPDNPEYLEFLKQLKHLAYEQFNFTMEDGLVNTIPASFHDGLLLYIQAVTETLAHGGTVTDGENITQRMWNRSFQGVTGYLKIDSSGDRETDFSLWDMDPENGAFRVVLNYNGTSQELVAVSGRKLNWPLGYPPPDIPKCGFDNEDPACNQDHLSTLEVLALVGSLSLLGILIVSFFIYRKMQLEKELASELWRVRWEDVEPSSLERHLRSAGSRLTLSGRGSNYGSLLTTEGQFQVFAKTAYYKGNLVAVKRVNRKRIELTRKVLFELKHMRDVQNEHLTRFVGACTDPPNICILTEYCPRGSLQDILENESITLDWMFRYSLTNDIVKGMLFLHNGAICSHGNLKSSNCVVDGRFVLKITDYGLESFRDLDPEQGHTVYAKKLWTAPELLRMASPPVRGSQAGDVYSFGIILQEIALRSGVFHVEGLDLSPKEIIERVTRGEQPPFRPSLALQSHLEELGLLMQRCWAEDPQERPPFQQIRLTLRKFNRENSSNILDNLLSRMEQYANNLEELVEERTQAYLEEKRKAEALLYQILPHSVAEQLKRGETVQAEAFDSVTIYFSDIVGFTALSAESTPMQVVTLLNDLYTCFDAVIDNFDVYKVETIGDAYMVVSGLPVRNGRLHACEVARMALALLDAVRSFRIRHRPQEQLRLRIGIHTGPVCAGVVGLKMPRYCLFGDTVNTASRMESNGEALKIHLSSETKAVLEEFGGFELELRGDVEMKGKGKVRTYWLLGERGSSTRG

Substance	Optical Densities in 96_Well Plate, Average ([1]; peptide 0.01 μM)	Optical Densities in 96_Well Plate, single well ([1]; peptide 0.01 μM)	Optical Densities in 96_Well Plate, Average ([1]; peptide 0.03 μM)	Optical Densities in 96_Well Plate, single well ([1]; peptide 0.03 μM)	Optical Densities in 96_Well Plate, Average ([1]; peptide 0.1 μM)	Optical Densities in 96_Well Plate, single well ([1]; peptide 0.1 μM)	Optical Densities in 96_Well Plate, Average ([1]; peptide 0.3 μM)	Optical Densities in 96_Well Plate, single well ([1]; peptide 0.3 μM)	Optical Densities in 96_Well Plate, Average ([1]; peptide 1.0 μM)	Optical Densities in 96_Well Plate, single well ([1]; peptide 1.0 μM)	Activity of peptides sharing the conserved motif [2]	Effect on VEGF-induced decrease in trans-epithelial electrical resistance (TEER) ([3]; concurrent treatment with VEGF 10 ng/ml, ANP luM)	Relative binding affinity at NPRC [4]	Relative potency of NPs [5]	Relative binding affinity at NPRA [6]	Effect on transepithelial electrical resistance (TEER) ([3]; VEGF 10 ng/ml)
AGALSPL [Ala-8-Leu, 8-mer conserved motif peptide]	0.937	0.744 and 0.878 and 1.000 and 0.892 and 1.169	0.976	0.892 and 0.937 and 0.989 and 0.921 and 1.139	0.991	0.832 and 1.006 and 1.031 and 0.910 and 1.174	1.002	0.784 and 0.802 and 0.998 and 1.357 and 1.070	0.985	0.732 and 1.216 and 0.954 and 0.834 and 1.189						
ANP: atrial natriuretic peptide; Table III sequence SLRRSSCFGGRMDRIGAQSGLGCNSFRY [reference compound]	0.908	0.981 and 0.815 and 0.822 and 0.965 and 0.955	0.935	0.948 and 0.882 and 0.911 and 0.951 and 0.982	0.838	0.884 and 0.889 and 0.907 and 0.862 and 0.650	0.974	1.001 and 0.889 and 0.837 and 0.934 and 1.209	0.914	1.018 and 0.819 and 0.954 and 0.829 and 0.951	have activity	attenuated the effect of VEGF; also recorded: This decrease is attenuated by ANP	higher binding affinities at NPRA and NPRC	greater potency observed for ANP than CNP	higher binding affinities at NPRA and NPRC	
BNP: brain natriuretic peptide; motif in Table III FGKRMDRI											have activity					
CNP: C-type natriuretic peptide; motif in Table III FGLKLDRI											have activity; also recorded: less active than ANP, LANP, KP or VDL		higher binding affinity than BNP specifically at NPRC	greater potency of CNP than BNP		
EVVPPQVLSEPNEEAGAALSPLPEVPPWTGEVSPAQR [KT-220 (VDL), vessel dilator VDL]											have activity					
KP: ANP-related peptide; motif in Table III LKSKLRAL (SSDRSALLKSKLRALLTAPR; Kaliuretic peptide; UniProt P01160 104-123, looked up)											have activity					
LANP: ANP-related peptide; motif in Table III FKNLLDHL (NPMYNAVSNADLMDFKNLLDHLEEKMPLED; Long-acting natriuretic peptide; UniProt P01160 26-55, looked up)											have activity					
PNEEAGAALSPLPEV [Pro-15-Val]	0.916	0.907 and 0.905 and 0.633 and 1.209 and 0.928	0.894	0.892 and 0.765 and 0.693 and 1.151 and 0.970	0.918	0.680 and 0.895 and 0.893 and 1.156 and 0.964	0.916	0.875 and 0.817 and 0.855 and 1.024 and 1.010	0.948	0.856 and 0.752 and 0.802 and 1.083 and 1.248						
RSSCAGAALSPLGAC [Arg-15-Cys]	0.934	0.974 and 0.920 and 0.863 and 0.840 and 1.075	0.982	1.093 and 0.894 and 0.789 and 0.955 and 1.178	0.950	1.016 and 0.917 and 0.801 and 0.990 and 1.025	0.897	0.988 and 0.957 and 0.668 and 0.913 and 0.959	0.962	1.155 and 1.005 and 0.787 and 0.944 and 0.919						
RSSCFGGRIDRIGAC [C-ANP 4-23, the ANP analog, reference compound]	0.938	0.877 and 0.971 and 0.953 and 0.932 and 0.958	0.932	0.905 and 0.882 and 0.981 and 0.948 and 0.943	0.942	0.758 and 1.027 and 0.983 and 0.960 and 0.982	0.942	0.840 and 0.928 and 1.035 and 0.975 and 0.932	0.925	0.865 and 0.925 and 0.900 and 0.955 and 0.981	have activity					
VEGF																lowered resistance
